# Measured values reported in patent US20050244966A1, “Insulin producing cells” (Ramot At Tel Aviv University Ltd., priority 2003, published 2005).
# Test system: FH-B-TPN cells
# Test: Insulin content of FH-B-TPN cells (RIA/ELISA of cell extracts)
# Format: cell-based, human
# Conditions: for Insulin content / Fold increase (insulin content): FH-B-TPN cells; for Insulin content / Effect on insulin content of FH-B-TPN cells (in words): RIA; for Fold increase (insulin content): vs CM; for Effect on insulin content of FH-B-TPN cells (in words): in CM, compared with regular medium or with Act-A alone
# Experimental: FH cells were isolated and cultured as described (19), in Dulbecco's modified Eagle's medium containing 25 mM glucose and supplemented with 10% fetal bovine serum (FBS), 100 U/ml penicillin, 100 μg/ml streptomycin, 5 μM hydrocortisone, and 5 μg/ml insulin. A subclone of FH cells that was stably transduced with hTERT, designated FH-B-hTERT (FH-B), was cultured in the same medium, as described (20). FH-B cells transduced with the Pdx1 gene (see below), designated FH-B-TPN cells, were maintained in the same culture medium, with the exception of hydrocortisone and insulin (complete medium CM). For incubation in serum-free medium, the cells were placed in DMEM containing antibiotics, in the presence of 100 ng/ml insulin, 55 ng/ml transferrin, and 50 pg/ml selenium (ITS, Sigma). For all experiments activin A (Cytolab/PreproTech Asia, Rehovot, Israel) was added at a final concentration of 4 nM. except for those aimed at promoting differentiation of FH-B-TPN cells towards the beta-cell phenotype. There, addition of Act-A, as well as betacellulin (BTC, R&D Systems, Minneapolis, Minn.), nicotinamide (NA), exendin-4, and hepatocyte growth factor (HGF) (the last 3 compounds from Sigma-Aldrich) was at concentrations detailed herein below.
# Insulin secretion from FH-B-TPN cells was measured by static incubation as previously described (2). Cells were plated in 24-well plates at 10^5 cells per well. The cells were preincubated for 1 hour in Krebs-Ringer buffer (KRB), followed by incubation for the indicated period of time in KRB containing 0.5 mM 1-isobutyl 3-methylxanthine (IBMX) and glucose at various concentrations. The cells were then extracted in acetic acid, and the amount of insulin in the buffer and cell extract was determined by radioimmunoassay (RIA) using the INSIK-5 kit (DiaSorin, Vercelli, Italy) according to the manufacturer. This assay has <20% crossreactivity with proinsulin. In addition, insulin content was determined using an ELISA kit (Diagnostic Systems Laboratories, Webster, Tex. or (Mercodia, Uppsala, Sweden), which recognizes only mature insulin. Insulin content was normalized to total cellular protein, measured by the Bio-Rad (Hercules, Calif.) Protein Assay kit. Human C-peptide in the cell extract was determined using a RIA kit (DiaSorin, Vercelli, Italy) or ELISA kit (Mercodia, Uppsala, Sweden) according to the manufacturers.
compound,measurement,setting,value
exendin-4 [reference compound],Insulin content,2-8 nM in CM (6 d),0 ng/10^6 cells
same,Fold increase (insulin content),2-8 nM in CM (6 d),0
same,Effect on insulin content of FH-B-TPN cells (in words),,decrease
"NC(=O)c1cccnc1 [NA, nicotinamide, reference compound]",Insulin content,5 mM in CM (6 d),122 ± 20 ng/10^6 cells
same,Fold increase (insulin content),5 mM in CM (6 d),0.6
same,Effect on insulin content of FH-B-TPN cells (in words),,decrease
